This note sets out measurements from US20250127170A1, “TRIAZINE HERBICIDAL COMPOUNDS” (SYNGENTA CROP PROTECTION AG, priority 2021, published 2025).

What all share (format): in vivo
What all share (conditions): 312 h, evaluated after 13 days, 100=total damage to plant, 0=no damage to plant

Assay [1] relates to Amaranthus palmeri (AMAPA). In words: Pre-emergence biological efficacy. As to the method:
(§1) Seeds of weeds and/or crops were sown in standard soil in pots (Amaranthus palmeri (AMAPA), Lolium perenne (LOLPE), Euphorbia heterophylla (EPHHL), Ipomoea hederacea (IPOHE), Setaria faberi (SETFA), Echinochloa crus-galli (ECHCG)). After cultivation for one day under controlled conditions in a glasshouse (at 24/19° C., day/night; 16 hours light), the plants were sprayed with an aqueous spray solution derived from the formulation of the technical active ingredient in a small amount of acetone and a special solvent and emulsifier mixture referred to as IF50 (11.12% Emulsogen EL360™+44.44% N-methylpyrrolidone+44.44% Dowanol DPM glycol ether), to create a 50 g/l solution which was then diluted using 0.2% Genapol XO80 as diluent to give the desired final dose of test compound.
(§2) The test plants were then grown under controlled conditions in the glasshouse (at 24/18° C., day/night; 15 hours light; 50% humidity) and watered twice daily. After 13 days the test was evaluated (100=total damage to plant; 0=no damage to plant).

The subject of assay [2] is Echinochloa crus-galli (ECHCG). In words: Pre-emergence biological efficacy. As to the method:
as §1, §2

Assay [3] has as its system Euphorbia heterophylla (EPHHL). In words: Pre-emergence biological efficacy. As to the method:
as §1, §2

Assay [4] has as its system Ipomoea hederacea (IPOHE). In words: Pre-emergence biological efficacy. As to the method:
as §1, §2

Assay [5] has as its system Lolium perenne (LOLPE). In words: Pre-emergence biological efficacy. As to the method:
as §1, §2

Assay [6] has as its system Setaria faberi (SETFA). In words: Pre-emergence biological efficacy. As to the method: as §1, §2
In assay [7] the test system is Amaranthus palmeri (AMAPA). In words: Post-emergence biological efficacy. As to the method:
as §1, with “Chenopodium album (CHEAL),” for “Lolium perenne (LOLPE),”, “(IPOHE), Eleusine indica (ELEIN), Lolium perenne (LOLPE), Digitaria sanguinalis (DIGSA),” for “(IPOHE),”, “14 days” for “one day”, “compound. The test plants were then grown under controlled conditions in the glasshouse (at 24/18° C., day/night; 15 hours light; 50% humidity) and watered twice daily. After 13 days the test was evaluated (100=total damage to plant; 0=no damage to plant).” for “compound.”

Assay [8] has as its system Chenopodium album (CHEAL). In words: Post-emergence biological efficacy. As to the method:
as §1, with “Chenopodium album (CHEAL),” for “Lolium perenne (LOLPE),”, “(IPOHE), Eleusine indica (ELEIN), Lolium perenne (LOLPE), Digitaria sanguinalis (DIGSA),” for “(IPOHE),”, “14 days” for “one day”, “compound. The test plants were then grown under controlled conditions in the glasshouse (at 24/18° C., day/night; 15 hours light; 50% humidity) and watered twice daily. After 13 days the test was evaluated (100=total damage to plant; 0=no damage to plant).” for “compound.”

In assay [9] the test system is Digitaria sanguinalis (DIGSA). In words: Post-emergence biological efficacy. As to the method: as §1, with “Chenopodium album (CHEAL),” for “Lolium perenne (LOLPE),”, “(IPOHE), Eleusine indica (ELEIN), Lolium perenne (LOLPE), Digitaria sanguinalis (DIGSA),” for “(IPOHE),”, “14 days” for “one day”, “compound. The test plants were then grown under controlled conditions in the glasshouse (at 24/18° C., day/night; 15 hours light; 50% humidity) and watered twice daily. After 13 days the test was evaluated (100=total damage to plant; 0=no damage to plant).” for “compound.”

Assay [10] has as its system Echinochloa crus-galli (ECHCG). In words: Post-emergence biological efficacy. As to the method:
as §1, with “Chenopodium album (CHEAL),” for “Lolium perenne (LOLPE),”, “(IPOHE), Eleusine indica (ELEIN), Lolium perenne (LOLPE), Digitaria sanguinalis (DIGSA),” for “(IPOHE),”, “14 days” for “one day”, “compound. The test plants were then grown under controlled conditions in the glasshouse (at 24/18° C., day/night; 15 hours light; 50% humidity) and watered twice daily. After 13 days the test was evaluated (100=total damage to plant; 0=no damage to plant).” for “compound.”

Another assay has as its system Eleusine indica (ELEIN). In words: Post-emergence biological efficacy. As to the method:
as §1, with “Chenopodium album (CHEAL),” for “Lolium perenne (LOLPE),”, “(IPOHE), Eleusine indica (ELEIN), Lolium perenne (LOLPE), Digitaria sanguinalis (DIGSA),” for “(IPOHE),”, “14 days” for “one day”, “compound. The test plants were then grown under controlled conditions in the glasshouse (at 24/18° C., day/night; 15 hours light; 50% humidity) and watered twice daily. After 13 days the test was evaluated (100=total damage to plant; 0=no damage to plant).” for “compound.”

Assay [11] deals with Euphorbia heterophylla (EPHHL). In words: Post-emergence biological efficacy. As to the method: as §1, with “Chenopodium album (CHEAL),” for “Lolium perenne (LOLPE),”, “(IPOHE), Eleusine indica (ELEIN), Lolium perenne (LOLPE), Digitaria sanguinalis (DIGSA),” for “(IPOHE),”, “14 days” for “one day”, “compound. The test plants were then grown under controlled conditions in the glasshouse (at 24/18° C., day/night; 15 hours light; 50% humidity) and watered twice daily. After 13 days the test was evaluated (100=total damage to plant; 0=no damage to plant).” for “compound.”

Assay [12] relates to Ipomoea hederacea (IPOHE). In words: Post-emergence biological efficacy. As to the method:
as §1, with “Chenopodium album (CHEAL),” for “Lolium perenne (LOLPE),”, “(IPOHE), Eleusine indica (ELEIN), Lolium perenne (LOLPE), Digitaria sanguinalis (DIGSA),” for “(IPOHE),”, “14 days” for “one day”, “compound. The test plants were then grown under controlled conditions in the glasshouse (at 24/18° C., day/night; 15 hours light; 50% humidity) and watered twice daily. After 13 days the test was evaluated (100=total damage to plant; 0=no damage to plant).” for “compound.”

Assay [13] deals with Lolium perenne (LOLPE). In words: Post-emergence biological efficacy. As to the method:
as §1, with “Chenopodium album (CHEAL),” for “Lolium perenne (LOLPE),”, “(IPOHE), Eleusine indica (ELEIN), Lolium perenne (LOLPE), Digitaria sanguinalis (DIGSA),” for “(IPOHE),”, “14 days” for “one day”, “compound. The test plants were then grown under controlled conditions in the glasshouse (at 24/18° C., day/night; 15 hours light; 50% humidity) and watered twice daily. After 13 days the test was evaluated (100=total damage to plant; 0=no damage to plant).” for “compound.”

Assay [14] concerns Setaria faberi (SETFA). In words: Post-emergence biological efficacy. As to the method:
as §1, with “Chenopodium album (CHEAL),” for “Lolium perenne (LOLPE),”, “(IPOHE), Eleusine indica (ELEIN), Lolium perenne (LOLPE), Digitaria sanguinalis (DIGSA),” for “(IPOHE),”, “14 days” for “one day”, “compound. The test plants were then grown under controlled conditions in the glasshouse (at 24/18° C., day/night; 15 hours light; 50% humidity) and watered twice daily. After 13 days the test was evaluated (100=total damage to plant; 0=no damage to plant).” for “compound.”

Consider `CCOC(=O)CC(C)N(C)C(=O)c1cc(-n2c(=O)n(C)c(=S)n(C)c2=O)c(F)cc1Cl` (stereo not drawn) [Compound 1-405, Ethyl 3-[[2-chloro-5-(3,5-dimethyl-2,6-dioxo-4-thioxo-1,3,5-triazinan-1-yl)-4-fluoro-benzoyl]-methyl-amino]butanoate], for which the pest or weed control at 250 g/ha (in assay [1]; in assay [2]; in assay [3]; in [4]; in the assay with Lolium perenne (LOLPE) [5]; in the assay on Setaria faberi (SETFA) [6]) was 0% each time. In addition, the pest or weed control at 250 g/ha was 60% in assay [7]; 60% in assay [8]; 40% in [9]; 10% in assay [10]; 50% with Eleusine indica (ELEIN); 20% in assay [11]. Further, the results for the pest or weed control at 250 g/ha (in assay [12]; in the assay with Lolium perenne (LOLPE) [13]; in the assay on Setaria faberi (SETFA) [14]) were 40%, 10% and 10%, respectively.

As to `CCOC(=O)CC(CC)OC(=O)c1cc(-n2c(=O)n(C)c(=S)n(C)c2=O)c(F)cc1Cl` (stereo not drawn) [Compound 1-420, (3-Ethoxy-1-ethyl-3-oxo-propyl) 2-chloro-5-(3,5-dimethyl-2,6-dioxo-4-thioxo-1,3,5-triazinan-1-yl)-4-fluoro-benzoate], the pest or weed control at 250 g/ha stood at 100% in assay [1]; 100% in assay [2]; 100% in assay [3]; 30% in assay [4]; 90% in the assay with Lolium perenne (LOLPE) [5]; 100% in the assay with Setaria faberi (SETFA) [6]. In addition, the pest or weed control at 250 g/ha was found to be 100% in [7]; 100% in [8]; 30% in assay [9]; 40% in [10]; 50% with Eleusine indica (ELEIN); 70% in assay [11]. Also, the pest or weed control at 250 g/ha in assay [12] is 50%; in the assay with Lolium perenne (LOLPE) [13], 100%; in the assay on Setaria faberi (SETFA) [14] it was 90%.

Consider `CCOC(=O)C(Cl)COC(=O)c1cc(-n2c(=O)n(C)c(=S)n(C)c2=O)c(F)cc1Cl` (stereo not drawn) [Compound 1-675, (2-Chloro-3-ethoxy-3-oxo-propyl) 2-chloro-5-(3,5-dimethyl-2,6-dioxo-4-thioxo-1,3,5-triazinan-1-yl)-4-fluoro-benzoate], for which the pest or weed control at 250 g/ha in assay [1] was 100%; in assay [2] it was 100%; in assay [3], 80%; in assay [4], 40%; in the assay with Lolium perenne (LOLPE) [5], 90%; in the assay with Setaria faberi (SETFA) [6], 90%. Also, the pest or weed control at 250 g/ha in [7] amounted to 100%; in [8], 100%; in assay [9], 90%; in assay [10], 80%; in the assay with Eleusine indica (ELEIN), 90%; in assay [11], 90%. In addition, the results for the pest or weed control at 250 g/ha (in [12]; in the assay with Lolium perenne (LOLPE) [13]; in the assay on Setaria faberi (SETFA) [14]) were 100%, 80% and 90%, respectively.

The term pest or weed control denotes the degree to which the test organism was suppressed or injured, in per cent. A higher pest or weed control goes with strong suppression.
